For 20 compounds, IC50 results are on record in patent US10479780B2, “Aminopyrazole derivatives” (Chugai Seiyaku Kabushiki Kaisha, priority 2015, dated 2019).

Read-outs that look alike come from different tables or passages of the source.

Holding throughout (assay type): biochemical
The target of one experiment is T1, human Src enzyme (Homo sapiens, UniProt P12931).
T1 construct: purchased Carna Biosciences, Inc. 08-173
Briefly: Src enzyme inhibitory activity (time-resolved fluorometry, biotinylated peptide phosphorylation). To be noted: read-out: SRC_IC50. A digest of the protocol: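 Compounds were tested for blocking tyrosine phosphorylation of a biotinylated peptide substrate by recombinant human Src. Phosphorylated product was quantified by time-resolved fluorometry using europium cryptate and XL665 conjugates, and IC50 was calculated against the compound-free control.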

The next experiment addresses T2, human Lck enzyme (Homo sapiens, UniProt P06239).
T2 construct: purchased Carna Biosciences, Inc. 08-170
Briefly: Lck enzyme inhibitory activity (time-resolved fluorometry, biotinylated peptide phosphorylation). To be noted: read-out: LCK_IC50. Summed up:
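Readout pairs a europium cryptate-labelled anti-phosphotyrosine antibody with XL665-streptavidin, measured by time-resolved fluorescence. IC50 derived from percent inhibition against untreated controls.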

The target in another experiment is T3, human Yes1 enzyme (Homo sapiens, UniProt P07947).
T3 construct: made in house
In words: Yes1 enzyme inhibitory activity (time-resolved fluorometry, biotinylated peptide phosphorylation). The note with it: read-out: YES_IC50. Summed up:
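Inhibition was expressed against a compound-free control to give IC50, using TR-FRET read-out (Eu-cryptate anti-pTyr antibody, streptavidin-XL665).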

Where [1] appears, read: biotinylated peptide phosphorylation.

T1 sequence (P12931 whole entry): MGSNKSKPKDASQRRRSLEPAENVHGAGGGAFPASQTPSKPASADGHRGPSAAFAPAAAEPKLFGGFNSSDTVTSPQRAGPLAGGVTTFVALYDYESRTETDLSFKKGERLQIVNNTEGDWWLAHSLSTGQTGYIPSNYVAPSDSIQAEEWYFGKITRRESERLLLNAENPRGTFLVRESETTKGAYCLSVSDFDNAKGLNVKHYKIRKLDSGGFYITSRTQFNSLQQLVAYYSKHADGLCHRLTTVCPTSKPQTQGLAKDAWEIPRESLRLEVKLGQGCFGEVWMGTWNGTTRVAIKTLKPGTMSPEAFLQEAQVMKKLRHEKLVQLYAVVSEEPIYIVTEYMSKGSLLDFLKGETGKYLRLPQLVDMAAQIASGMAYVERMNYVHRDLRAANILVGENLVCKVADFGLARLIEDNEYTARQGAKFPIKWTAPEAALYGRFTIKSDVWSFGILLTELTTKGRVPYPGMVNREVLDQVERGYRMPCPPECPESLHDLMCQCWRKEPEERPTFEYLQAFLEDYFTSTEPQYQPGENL
T2 sequence (P06239 whole entry): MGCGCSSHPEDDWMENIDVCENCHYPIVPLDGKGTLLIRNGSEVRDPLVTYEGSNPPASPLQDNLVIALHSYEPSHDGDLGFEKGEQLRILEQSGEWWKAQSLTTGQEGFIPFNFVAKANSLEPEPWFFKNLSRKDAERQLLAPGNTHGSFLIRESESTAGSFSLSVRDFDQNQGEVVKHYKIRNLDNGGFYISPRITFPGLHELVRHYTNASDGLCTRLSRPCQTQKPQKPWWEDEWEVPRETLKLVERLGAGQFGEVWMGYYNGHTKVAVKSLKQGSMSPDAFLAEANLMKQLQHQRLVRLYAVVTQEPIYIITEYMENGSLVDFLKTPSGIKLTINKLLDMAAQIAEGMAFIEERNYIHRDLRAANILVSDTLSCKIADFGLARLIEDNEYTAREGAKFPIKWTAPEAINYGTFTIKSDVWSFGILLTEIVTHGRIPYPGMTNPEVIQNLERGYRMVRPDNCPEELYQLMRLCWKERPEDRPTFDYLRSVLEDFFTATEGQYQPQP
T3 sequence (P07947 whole entry): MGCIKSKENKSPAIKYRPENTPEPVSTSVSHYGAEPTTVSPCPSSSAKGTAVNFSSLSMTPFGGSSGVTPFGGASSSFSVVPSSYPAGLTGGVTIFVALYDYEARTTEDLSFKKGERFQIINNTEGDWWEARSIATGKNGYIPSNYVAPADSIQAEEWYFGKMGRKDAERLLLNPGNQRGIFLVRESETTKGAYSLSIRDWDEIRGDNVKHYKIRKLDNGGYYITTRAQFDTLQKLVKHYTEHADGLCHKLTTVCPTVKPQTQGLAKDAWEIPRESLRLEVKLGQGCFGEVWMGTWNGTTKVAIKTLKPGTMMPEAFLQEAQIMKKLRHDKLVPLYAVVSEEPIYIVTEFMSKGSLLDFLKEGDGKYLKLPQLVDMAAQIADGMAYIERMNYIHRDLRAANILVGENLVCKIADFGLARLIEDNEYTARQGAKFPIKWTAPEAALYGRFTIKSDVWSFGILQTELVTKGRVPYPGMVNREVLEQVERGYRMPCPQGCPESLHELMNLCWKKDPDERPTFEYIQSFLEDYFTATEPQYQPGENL

As for `Cc1cc(Oc2cccc(F)c2F)cc(F)c1-n1ncc(C(=O)c2cc3cc(F)c(NS(=O)(=O)N4CCOCC4)cc3[nH]2)c1N` [Example 4-5-011, N-[2-[5-amino-1-[4-(2,3-difluorophenoxy)-2-fluoro-6-methylphenyl]pyrazole-4-carbonyl]-5-fluoro-1H-indol-6-yl]morpholine-4-sulfonamide], the values for the IC50 at human Src enzyme (setting [1]), on human Lck enzyme (setting [1]) and at human Yes1 enzyme (setting [1]) were 110 nM, 65 nM and 1.6 nM, respectively.

Turning to `Cc1cc(Oc2c(F)cccc2F)ncc1-n1ncc(C(=O)c2cc3cc(OCC(F)F)c(-c4cncnc4)cc3[nH]2)c1N` [Example 5-1-262, [5-amino-1-[6-(2,6-difluorophenoxy)-4-methylpyridin-3-yl]pyrazol-4-yl]-[5-(2,2-difluoroethoxy)-6-pyrimidin-5-yl-1H-indol-2-yl]methanone], the IC50 at human Src enzyme was 6.4 nM; at human Lck enzyme, 12 nM; on human Yes1 enzyme it was 2.3 nM.

In the case of `Cc1cc(Oc2ccccc2F)ccc1-n1ncc(C(=O)c2cc3cc(OC(F)F)c(NS(=O)(=O)N4CCOCC4)cc3[nH]2)c1N` [Example 4-22-001, N-(2-(5-amino-1-(4-(2-fluorophenoxy)-2-methylphenyl)-1H-pyrazole-4-carbonyl)-5-(difluoromethoxy)-1H-indol-6-yl)morpholine-4-sulfonamide], the figures for the IC50 at human Src enzyme (setting [1]), at human Lck enzyme (setting [1]) and at human Yes1 enzyme (setting [1]) were 90 nM, 34 nM and 2.6 nM, respectively.

Consider `Cc1cc(Oc2c(F)cccc2F)ncc1-n1ncc(C(=O)c2cc3cc(N4CCOCC4)c(NS(C)(=O)=O)cc3[nH]2)c1N` [Example 4-24-018, N-[2-[5-amino-1-[6-(2,6-difluorophenoxy)-4-methylpyridin-3-yl]pyrazole-4-carbonyl]-5-morpholin-4-yl-1H-indol-6-yl]methanesulfonamide], for which the figures for the IC50 at human Src enzyme (setting [1]), at human Lck enzyme (setting [1]) and at human Yes1 enzyme (setting [1]) were 91 nM, 27 nM and 2.6 nM, respectively.

For `Cc1cc2cc(C(=O)c3cnn(-c4c(C)cc(Oc5cccc(F)c5F)cc4F)c3N)[nH]c2cc1N1CCCS1(=O)=O` [Example 4-2-115, [5-amino-1-[4-(2,3-difluorophenoxy)-2-fluoro-6-methylphenyl]pyrazol-4-yl]-[6-(1,1-dioxo-1,2-thiazolidin-2-yl)-5-methyl-1H-indol-2-yl]methanone], the IC50 turned out to be 63 nM on human Src enzyme (setting [1]), 16 nM on human Lck enzyme (setting [1]) and 4.1 nM at human Yes1 enzyme (setting [1]).

In the case of `Cc1cc(Oc2c(F)cccc2F)ncc1-n1ncc(C(=O)c2cc3cc(OCC(F)F)c(N4CC(C)(C)NS4(=O)=O)cc3[nH]2)c1N` [Example 5-1-321, [5-amino-1-[6-(2,6-difluorophenoxy)-4-methylpyridin-3-yl]pyrazol-4-yl]-[5-(2,2-difluoroethoxy)-6-(4,4-dimethyl-1,1-dioxo-1,2,5-thiadiazolidin-2-yl)-1H-indol-2-yl]methanone], the results for the IC50 at human Src enzyme, at human Lck enzyme and on human Yes1 enzyme were 130 nM, 34 nM and 5.8 nM, respectively.

With `Cc1cc(Oc2c(F)cccc2F)ncc1-n1ncc(C(=O)c2cc3cc(OC(F)F)c(NS(=O)(=O)C4CC4)cc3[nH]2)c1N` [Example 4-24-010, N-[2-[5-amino-1-[6-(2,6-difluorophenoxy)-4-methylpyridin-3-yl]pyrazole-4-carbonyl]-5-(difluoromethoxy)-1H-indol-6-yl]cyclopropanesulfonamide], the IC50 was 150 nM on human Src enzyme (setting [1]), 36 nM at human Lck enzyme (setting [1]) and 4.3 nM on human Yes1 enzyme (setting [1]).

As for `CCOc1cc2cc(C(=O)c3cnn(-c4ccc(Oc5ccccc5F)cc4C)c3N)[nH]c2cc1C1CCN(S(=O)(=O)C2CC2)CC1` [Example 5-1-071, [5-amino-1-[4-(2-fluorophenoxy)-2-methylphenyl]pyrazol-4-yl]-[6-(1-cyclopropylsulfonylpiperidin-4-yl)-5-ethoxy-1H-indol-2-yl]methanone], the IC50 amounted to 67 nM on human Src enzyme, 61 nM at human Lck enzyme and 28 nM at human Yes1 enzyme.

Turning to `Cc1cc(Oc2c(F)cccc2F)ncc1-n1ncc(C(=O)c2cc3cc(F)c(N(C4CCOCC4)S(C)(=O)=O)cc3[nH]2)c1N` [Example 4-2-127, N-[2-[5-amino-1-[6-(2,6-difluorophenoxy)-4-methylpyridin-3-yl]pyrazole-4-carbonyl]-5-fluoro-1H-indol-6-yl]-N-(oxan-4-yl)methanesulfonamide], the IC50 on human Src enzyme (setting [1]) was 23 nM; on human Lck enzyme (setting [1]) it was 3.7 nM; at human Yes1 enzyme (setting [1]), 1.3 nM.

Take `Cc1cc(Oc2ccccc2F)ccc1-n1ncc(C(=O)c2cc3cc(OCC(F)F)c(N4C(=O)[C@@H]5C[C@H](NC(=O)OCc6ccco6)CN5C4=O)cc3[nH]2)c1N` [Example 5-1-278, furan-2-ylmethyl ((6S,7aS)-2-(2-(5-amino-1-(4-(2-fluorophenoxy)-2-methylphenyl)-1H-pyrazole-4-carbonyl)-5-(2,2-difluoroethoxy)-1H-indol-6-yl)-1,3-dioxohexahydro-1H-pyrrolo[1,2-c]imidazol-6-yl)carbamate]: the IC50 at human Src enzyme came to 23 nM; on human Lck enzyme, 8.7 nM; on human Yes1 enzyme, 1.2 nM.

Regarding `Cc1cc(Oc2ccccc2F)ccc1-n1ncc(C(=O)c2cc3cc(F)c(NS(=O)(=O)CCCF)cc3[nH]2)c1N` [Example 4-2-015, N-[2-[5-amino-1-[4-(2-fluorophenoxy)-2-methylphenyl]pyrazole-4-carbonyl]-5-fluoro-1H-indol-6-yl]-3-fluoropropane-1-sulfonamide], the IC50 at human Src enzyme (setting [1]) was found to be 19 nM; on human Lck enzyme (setting [1]), 10 nM; on human Yes1 enzyme (setting [1]), 0.67 nM.

As for `Cc1cc2cc(C(=O)c3cnn(-c4cnc(Oc5ccccc5F)cc4C)c3N)[nH]c2cc1NS(=O)(=O)c1cccc(C(F)(F)F)n1` [Example 5-1-486, N-[2-[5-amino-1-[6-(2-fluorophenoxy)-4-methylpyridin-3-yl]pyrazole-4-carbonyl]-5-methyl-1H-indol-6-yl]-6-(trifluoromethyl) pyridine-2-sulfonamide], the values for the IC50 on human Src enzyme (setting [1]), at human Lck enzyme (setting [1]) and at human Yes1 enzyme (setting [1]) were 620 nM, 160 nM and 7.3 nM, respectively.

Regarding `Cc1cc2cc(C(=O)c3cnn(-c4c(C)cc(Oc5ccccc5F)cc4F)c3N)[nH]c2cc1N1CCOCC1` [Example 5-1-084, [5-amino-1-[2-fluoro-4-(2-fluorophenoxy)-6-methylphenyl]pyrazol-4-yl]-(5-methyl-6-morpholin-4-yl-1H-indol-2-yl)methanone], the IC50 at human Src enzyme amounted to 34 nM; at human Lck enzyme, 4.5 nM; on human Yes1 enzyme, 4.1 nM.

Regarding `Cc1cc2cc(C(=O)c3cnn(-c4cnc(Oc5c(F)cccc5F)cc4C)c3N)[nH]c2cc1NS(=O)(=O)C1CCCC1` [Example 5-1-317, N-[2-[5-amino-1-[6-(2,6-difluorophenoxy)-4-methylpyridin-3-yl]pyrazole-4-carbonyl]-5-methyl-1H-indol-6-yl]cyclopentanesulfonamide], the IC50 was determined as 500 nM at human Src enzyme, 110 nM at human Lck enzyme and 16 nM on human Yes1 enzyme.

As for `Cc1cc2cc(C(=O)c3cnn(-c4cnc(Oc5c(F)cccc5F)cc4C)c3N)[nH]c2cc1N1C(=O)NC2(CC2)C1=O` [Example 5-1-366, 6-[2-[5-amino-1-[6-(2,6-difluorophenoxy)-4-methylpyridin-3-yl]pyrazole-4-carbonyl]-5-methyl-1H-indol-6-yl]-4,6-diazaspiro[2.4] heptane-5,7-dione], the IC50 at human Src enzyme came to 39 nM; at human Lck enzyme, 9.9 nM; on human Yes1 enzyme, 3.7 nM.

Consider `Cc1cc(Oc2ccccc2F)ncc1-n1ncc(C(=O)c2cc3cc(OC(F)F)c(NS(=O)(=O)CCCF)cc3[nH]2)c1N` [Example 4-24-009, N-[2-[5-amino-1-[6-(2-fluorophenoxy)-4-methylpyridin-3-yl]pyrazole-4-carbonyl]-5-(difluoromethoxy)-1H-indol-6-yl]-3-fluoropropane-1-sulfonamide], for which the IC50 on human Src enzyme (setting [1]) was found to be 120 nM; at human Lck enzyme (setting [1]), 39 nM; at human Yes1 enzyme (setting [1]), 3.6 nM.

On to `Cc1cc(-n2ncc(C(=O)c3cc4cc(OC(F)F)c(N5CCN(S(C)(=O)=O)CC5)cc4[nH]3)c2N)ccc1Oc1ccccc1F` [Example 5-1-175, [5-amino-1-[4-(2-fluorophenoxy)-3-methylphenyl]pyrazol-4-yl]-[5-(difluoromethoxy)-6-(4-methylsulfoNylpiperazin-1-yl)-1H-indol-2-yl]methanone], for which the IC50 on human Src enzyme amounted to 350 nM; on human Lck enzyme, 74 nM; at human Yes1 enzyme, 2.4 nM.

With `Cc1cc(Oc2ccccc2F)ncc1-n1ncc(C(=O)c2cc3cc(F)c(NS(=O)(=O)c4cccc(C#N)c4)cc3[nH]2)c1N` [Example 5-1-556, N-[2-[5-amino-1-[6-(2-fluorophenoxy)-4-methylpyridin-3-yl]pyrazole-4-carbonyl]-5-fluoro-1H-indol-6-yl]-3-cyanobenzenesulfonamide], the IC50 at human Src enzyme (setting [1]) came to 1000 nM; on human Lck enzyme (setting [1]), 150 nM; at human Yes1 enzyme (setting [1]), 8.8 nM.

Take `Cc1cc(Oc2ccccc2F)ccc1-n1ncc(C(=O)c2cc3cc(OCC(F)F)c(N4C(=O)OC[C@H]4Cc4ccccc4)cc3[nH]2)c1N` [Example 5-1-244, (4R)-3-[2-[5-amino-1-[4-(2-fluorophenoxy)-2-methylphenyl]pyrazole-4-carbonyl]-5-(2,2-difluoroethoxy)-1H-indol-6-yl]-4-benzyl-1,3-oxazolidin-2-one]: the IC50 at human Src enzyme turned out to be 18 nM; on human Lck enzyme, 40 nM; on human Yes1 enzyme, 9.9 nM.

For `Cc1cc(Oc2ccccc2F)ccc1-n1ncc(C(=O)c2cc3cc(F)c(NS(=O)(=O)C4CC4)cc3[nH]2)c1N` [Example 4-2-040, N-[2-[5-amino-1-[4-(2-fluorophenoxy)-2-methylphenyl]pyrazole-4-carbonyl]-5-fluoro-1H-indol-6-yl]cyclopropanesulfonamide], the IC50 on human Src enzyme (setting [1]) came out at 42 nM; on human Lck enzyme (setting [1]) it was 24 nM; on human Yes1 enzyme (setting [1]) it was 2.2 nM.
